Source: patent publication US9995734B2, “Human T cell line assay for evaluating the immunologic identity of glatiramer acetate preparations” (Mylan Inc., priority 2013, dated 2018)
“And” between values parts separate entries of the source, which are not always exact repeats. Equal values may be shown once.

How the values were obtained:
[1] = test system: Donor 3 GMA T-Cell Lines; test: ATP proliferation assay (CellTiter Glo), Donor 3 GMA T-cell lines, incl. reactivity to non-canonical GA peptides; assay type: cell-based, human; settings: for Non-Canonical Peptide Non-Reactivity: proliferation <2 times no antigen control
[2] = test system: Donor 3 COP T-Cell Lines; test: ATP proliferation assay (CellTiter Glo), Donor 3 COP T-cell lines, incl. reactivity to non-canonical GA peptides; assay type: cell-based, human; settings: for Non-Canonical Peptide Non-Reactivity: proliferation <2 times no antigen control

## poly (Glu-Ala-Tyr; 1:1:1) [GAT 111]
[1]; 165-B5G
  Non-Canonical Peptide Non-Reactivity: GAT 111
[1]; 165-C5G
  Non-Canonical Peptide Non-Reactivity: GAT 111
[1]; 165-E7G
  Non-Canonical Peptide Non-Reactivity: GAT 111
[1]; 165-E9G
  Non-Canonical Peptide Non-Reactivity: GAT 111
[1]; 165-F5G
  Non-Canonical Peptide Non-Reactivity: GAT 111
[1]; 165-F10G
  Non-Canonical Peptide Non-Reactivity: GAT 111
[1]; 165-H11G
  Non-Canonical Peptide Non-Reactivity: GAT 111
[1]; Donor 3 GMA lines, stimulation with the non-canonical GA peptide
  Nonreactive T-Cell Line: 165-B5G (Donor 3) and 165-C5G (Donor 3) and 165-C8G (Donor 3) and 165-E7G (Donor 3) and 165-E9G (Donor 3) and 165-F5G (Donor 3) and 165-F10G (Donor 3) and 165-H11G (Donor 3)
[1]; T-cell line 165-05G, 1 μg/mL antigen, Day 50 of culturing, No Antigen Value 2149
  Proliferation (luminescent ATP assay), Mean: 1778 RLU
[1]; T-cell line 165-05G, 3 μg/mL antigen, Day 50 of culturing, No Antigen Value 2149
  Proliferation (luminescent ATP assay), Mean: 1661 RLU
[1]; T-cell line 165-05G, 10 μg/mL antigen, Day 50 of culturing, No Antigen Value 2149
  Proliferation (luminescent ATP assay), Mean: 1569 RLU
[1]; T-cell line 165-05G, 30 μg/mL antigen, Day 50 of culturing, No Antigen Value 2149
  Proliferation (luminescent ATP assay), Mean: 1449 RLU
[1]; T-cell line 165-B5G, 1.25 μg/mL antigen, Day 55 of culturing, No Antigen Value 846
  Proliferation (luminescent ATP assay), Mean: 1005 RLU
[1]; T-cell line 165-B5G, 2.5 μg/mL antigen, Day 55 of culturing, No Antigen Value 846
  Proliferation (luminescent ATP assay), Mean: 886 RLU
[1]; T-cell line 165-B5G, 5 μg/mL antigen, Day 55 of culturing, No Antigen Value 846
  Proliferation (luminescent ATP assay), Mean: 947 RLU
[1]; T-cell line 165-B5G, 10 μg/mL antigen, Day 55 of culturing, No Antigen Value 846
  Proliferation (luminescent ATP assay), Mean: 931 RLU
[1]; T-cell line 165-C5G, 1.25 μg/mL antigen, autologous B-LCL
  Proliferation (luminescent ATP assay), Mean: 445 RLU
[1]; T-cell line 165-C5G, 2.5 μg/mL antigen, autologous B-LCL
  Proliferation (luminescent ATP assay), Mean: 406 RLU
[1]; T-cell line 165-C5G, 5 μg/mL antigen, autologous B-LCL
  Proliferation (luminescent ATP assay), Mean: 422 RLU
[1]; T-cell line 165-C5G, 10 μg/mL antigen, autologous B-LCL
  Proliferation (luminescent ATP assay), Mean: 430 RLU
[1]; T-cell line 165-E7G, 1.25 μg/mL antigen, autologous B-LCL, Day 55
  Proliferation (luminescent ATP assay), Mean: 1896 RLU
[1]; T-cell line 165-E7G, 2.5 μg/mL antigen, autologous B-LCL, Day 55
  Proliferation (luminescent ATP assay), Mean: 2001 RLU
[1]; T-cell line 165-E7G, 5 μg/mL antigen, autologous B-LCL, Day 55
  Proliferation (luminescent ATP assay), Mean: 1285 RLU
[1]; T-cell line 165-E7G, 10 μg/mL antigen, autologous B-LCL, Day 55
  Proliferation (luminescent ATP assay), Mean: 2176 RLU
[1]; T-cell line 165-E9G, 1 μg/mL antigen, Day 50 of culturing, No Antigen Value 1742
  Proliferation (luminescent ATP assay), Mean: 1528 RLU
[1]; T-cell line 165-E9G, 1.25 μg/mL antigen, autologous B-LCL
  Proliferation (luminescent ATP assay), Mean: 154 RLU
[1]; T-cell line 165-E9G, 2.5 μg/mL antigen, autologous B-LCL
  Proliferation (luminescent ATP assay), Mean: 240 RLU
[1]; T-cell line 165-E9G, 3 μg/mL antigen, Day 50 of culturing, No Antigen Value 1742
  Proliferation (luminescent ATP assay), Mean: 1454 RLU
[1]; T-cell line 165-E9G, 5 μg/mL antigen, autologous B-LCL
  Proliferation (luminescent ATP assay), Mean: 240 RLU
[1]; T-cell line 165-E9G, 10 μg/mL antigen, autologous B-LCL
  Proliferation (luminescent ATP assay), Mean: 153 RLU
[1]; T-cell line 165-E9G, 30 μg/mL antigen, Day 50 of culturing, No Antigen Value 1742
  Proliferation (luminescent ATP assay), Mean: 1301 RLU
[1]; T-cell line 165-E9G, 10 μpg/mL antigen, Day 50 of culturing, No Antigen Value 1742
  Proliferation (luminescent ATP assay), Mean: 1462 RLU
[1]; T-cell line 165-F5G, 1.25 μg/mL antigen, autologous B-LCL
  Proliferation (luminescent ATP assay), Mean: 139 RLU
[1]; T-cell line 165-F5G, 2.5 μg/mL antigen, autologous B-LCL
  Proliferation (luminescent ATP assay), Mean: 121 RLU
[1]; T-cell line 165-F5G, 5 μg/mL antigen, autologous B-LCL
  Proliferation (luminescent ATP assay), Mean: 142 RLU
[1]; T-cell line 165-F5G, 10 μg/mL antigen, autologous B-LCL
  Proliferation (luminescent ATP assay), Mean: 122 RLU
[1]; T-cell line 165-F10G, 1 μg/mL antigen, Day 50 of culturing, No Antigen Value 3752
  Proliferation (luminescent ATP assay), Mean: 3575 RLU
[1]; T-cell line 165-F10G, 1.25 μg/mL antigen, autologous B-LCL
  Proliferation (luminescent ATP assay), Mean: 929 RLU
[1]; T-cell line 165-F10G, 2.5 μg/mL antigen, autologous B-LCL
  Proliferation (luminescent ATP assay), Mean: 1342 RLU
[1]; T-cell line 165-F10G, 3 μg/mL antigen, Day 50 of culturing, No Antigen Value 3752
  Proliferation (luminescent ATP assay), Mean: 2989 RLU
[1]; T-cell line 165-F10G, 5 μg/mL antigen, autologous B-LCL
  Proliferation (luminescent ATP assay), Mean: 1091 RLU
[1]; T-cell line 165-F10G, 10 μg/mL antigen, Day 50 of culturing, No Antigen Value 3752
  Proliferation (luminescent ATP assay), Mean: 2876 RLU
[1]; T-cell line 165-F10G, 10 μg/mL antigen, autologous B-LCL
  Proliferation (luminescent ATP assay), Mean: 1054 RLU
[1]; T-cell line 165-F10G, 30 μg/mL antigen, Day 50 of culturing, No Antigen Value 3752
  Proliferation (luminescent ATP assay), Mean: 2299 RLU
[1]; T-cell line 165-H11G, 1 μg/mL antigen, Day 50 of culturing, No Antigen Value 1485
  Proliferation (luminescent ATP assay), Mean: 2448 RLU
[1]; T-cell line 165-H11G, 1.25 μg/mL antigen, autologous B-LCL
  Proliferation (luminescent ATP assay), Mean: 49 RLU
[1]; T-cell line 165-H11G, 2.5 μg/mL antigen, autologous B-LCL
  Proliferation (luminescent ATP assay), Mean: 320 RLU
[1]; T-cell line 165-H11G, 3 μg/mL antigen, Day 50 of culturing, No Antigen Value 1485
  Proliferation (luminescent ATP assay), Mean: 2294 RLU
[1]; T-cell line 165-H11G, 5 μg/mL antigen, autologous B-LCL
  Proliferation (luminescent ATP assay), Mean: 304 RLU
[1]; T-cell line 165-H11G, 10 μg/mL antigen, Day 50 of culturing, No Antigen Value 1485
  Proliferation (luminescent ATP assay), Mean: 2102 RLU
[1]; T-cell line 165-H11G, 10 μg/mL antigen, autologous B-LCL
  Proliferation (luminescent ATP assay), Mean: 336 RLU
[1]; T-cell line 165-H11G, 30 μg/mL antigen, Day 50 of culturing, No Antigen Value 1485
  Proliferation (luminescent ATP assay), Mean: 1599 RLU
[2]; 165-C4C
  Non-Canonical Peptide Non-Reactivity: GAT 111
[2]; 165-C7C
  Non-Canonical Peptide Non-Reactivity: GAT 111
[2]; 165-E3C, separate experiment
  proliferation response to non-canonical peptides: did not react
[2]; 165-F3C
  Non-Canonical Peptide Non-Reactivity: GAT 111
[2]; 165-F6C
  Non-Canonical Peptide Non-Reactivity: GAT 111
[2]; 165-U3C (so in the source)
  Non-Canonical Peptide Non-Reactivity: GAT 111
[2]; Donor 3 COP lines, stimulation with the non-canonical GA peptide
  Nonreactive T-Cell Line: 165-C4C (Donor 3) and 165-C7C (Donor 3) and 165-E3C (Donor 3) and 165-F3C (Donor 3) and 165-F6C (Donor 3)
[2]; T-cell line 165-C4C, 1 μg/mL antigen, Day 66 of culture, 0 μg/mL 1881
  Proliferation (luminescent ATP assay), Mean: 2330
[2]; T-cell line 165-C4C, 3 μg/mL antigen, Day 66 of culture, 0 μg/mL 1881
  Proliferation (luminescent ATP assay), Mean: 2392
[2]; T-cell line 165-C4C, 10 μg/mL antigen, Day 66 of culture, 0 μg/mL 1881
  Proliferation (luminescent ATP assay), Mean: 2233
[2]; T-cell line 165-C7C, 1.25 μg/mL antigen, autologous B-LCL
  Proliferation (luminescent ATP assay), Mean: 273 RLU
[2]; T-cell line 165-C7C, 2.5 μg/mL antigen, autologous B-LCL
  Proliferation (luminescent ATP assay), Mean: 231 RLU
[2]; T-cell line 165-C7C, 5 μg/mL antigen, autologous B-LCL
  Proliferation (luminescent ATP assay), Mean: 224 RLU
[2]; T-cell line 165-C7C, 10 μg/mL antigen, autologous B-LCL
  Proliferation (luminescent ATP assay), Mean: 264 RLU
[2]; T-cell line 165-F3C, 1 μg/mL antigen, Day 77 of culture, 0 μg/mL 1563
  Proliferation (luminescent ATP assay), Mean: 2387
[2]; T-cell line 165-F3C, 3 μg/mL antigen, Day 77 of culture, 0 μg/mL 1563
  Proliferation (luminescent ATP assay), Mean: 2269
[2]; T-cell line 165-F3C, 10 μg/mL antigen, Day 77 of culture, 0 μg/mL 1563
  Proliferation (luminescent ATP assay), Mean: 1772
[2]; T-cell line 165-F6C, 1.25 μg/mL antigen, Day 76 of culture, No Antigen value 517
  Proliferation (luminescent ATP assay), Mean: 576
[2]; T-cell line 165-F6C, 2.5 μg/mL antigen, Day 76 of culture, No Antigen value 517
  Proliferation (luminescent ATP assay), Mean: 620
[2]; T-cell line 165-F6C, 5 μg/mL antigen, Day 76 of culture, No Antigen value 517
  Proliferation (luminescent ATP assay), Mean: 479
[2]; T-cell line 165-F6C, 10 μg/mL antigen, Day 76 of culture, No Antigen value 517
  Proliferation (luminescent ATP assay), Mean: 411
